Experimental data published in patent US6638973B2, “Taxane formulations” (FSU Research Foundation, Inc., priority 2000, dated 2003).

System: HCT116 cells
Assay: In vitro cytotoxicity measured by the cell colony formation assay
Assay type: cell-based
Details: HCT116 cells, 72 h incubation with drug, colonies counted after 7 days; ID50 = drug concentration producing 50% inhibition of colony formation; read-out: IN VITRO ID 50 (nm) HCT116
Method in brief: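 Colony-forming survival was scored 7 days after a 72 h, 37 °C compound exposure followed by washout into fresh medium.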

Question: COC(=O)O[C@H]1C(=O)[C@@]2(C)C([C@H](OC(=O)c3ccccc3)[C@]3(O)C[C@H](OC(=O)[C@H](O)[C@@H](NC(=O)OC(C)(C)C)c4ccccc4)C(C)=C1C3(C)C)[C@]1(OC(C)=O)CO[C@@H]1C[C@@H]2O (stereo partly shown) [Compound 2092] was tested. Which IC50 did it give?
Answer: < 1 nM

Same assay, conditions: HCT116 colony formation; 72 h drug incubation, colonies counted after 7 days; Example 10, C-10 ester/C-7 hydroxy taxanes; read-out: IN VITRO ID 50 (nm) HCT116

Question: Which IC50 does the source give for CC(=O)OC12COC1CC(O)C1(C)C(=O)C(OC(=O)c3ccco3)C3=C(C)C(OC(=O)C(O)C(C=C(C)C)NC(=O)OC(C)(C)C)CC(O)(C(OC(=O)c4ccccc4)C21)C3(C)C (stereo not shown) [Compound 2101] here?
Answer: < 1 nM

Question: CC(=O)OC12COC1CC(O)C1(C)C(=O)C(OC(=O)c3ccco3)C3=C(C)C(OC(=O)C(O)C(NC(=O)OC(C)(C)C)c4ccccn4)CC(O)(C(OC(=O)c4ccccc4)C21)C3(C)C (stereo not shown) [Compound 2111] was tested. Which IC50 did it give?
Answer: < 1 nM

Question: Which IC50 does the source give for CC(=O)OC12COC1CC(O)C1(C)C(=O)C(OC(=O)c3ccco3)C3=C(C)C(OC(=O)C(O)C(NC(=O)OC(C)(C)C)c4cccnc4)CC(O)(C(OC(=O)c4ccccc4)C21)C3(C)C (stereo not shown) [Compound 2124] here?
Answer: < 10 nM

Question: CC(=O)OC12COC1CC(O)C1(C)C(=O)C(OC(=O)c3ccco3)C3=C(C)C(OC(=O)C(O)C(NC(=O)OC(C)(C)C)c4ccncc4)CC(O)(C(OC(=O)c4ccccc4)C21)C3(C)C (stereo not shown) [Compound 2132] was tested. Which IC50 did it give?
Answer: < 1 nM

Question: CC(=O)OC12COC1CC(O)C1(C)C(=O)C(OC(=O)c3ccco3)C3=C(C)C(OC(=O)C(O)C(NC(=O)OC(C)(C)C)c4ccco4)CC(O)(C(OC(=O)c4ccccc4)C21)C3(C)C (stereo not shown) [Compound 2142] was tested. Which IC50 did it give?
Answer: < 1 nM

Question: CC(=O)OC12COC1CC(O)C1(C)C(=O)C(OC(=O)c3ccco3)C3=C(C)C(OC(=O)C(O)C(NC(=O)OC(C)(C)C)c4ccoc4)CC(O)(C(OC(=O)c4ccccc4)C21)C3(C)C (stereo not shown) [Compound 2159] was tested. Which IC50 did it give?
Answer: < 1 nM

Question: Which IC50 does the source give for CC(=O)OC12COC1CC(O)C1(C)C(=O)C(OC(=O)c3ccco3)C3=C(C)C(OC(=O)C(O)C(NC(=O)OC(C)(C)C)c4cccs4)CC(O)(C(OC(=O)c4ccccc4)C21)C3(C)C (stereo not shown) [Compound 2164] here?
Answer: < 1 nM

Question: For CC(=O)OC12COC1CC(O)C1(C)C(=O)C(OC(=O)c3ccco3)C3=C(C)C(OC(=O)C(O)C(NC(=O)OC(C)(C)C)c4ccsc4)CC(O)(C(OC(=O)c4ccccc4)C21)C3(C)C (stereo not shown) [Compound 2173], which IC50 is on record?
Answer: < 1 nM

Question: How did the IC50 turn out when CC(=O)OC12COC1CC(O)C1(C)C(=O)C(OC(=O)c3ccco3)C3=C(C)C(OC(=O)C(O)C(NC(=O)OC(C)(C)C)C(C)C)CC(O)(C(OC(=O)c4ccccc4)C21)C3(C)C (stereo not shown) [Compound 2181] was run?
Answer: < 10 nM

Question: For CC(=O)OC12COC1CC(O)C1(C)C(=O)C(OC(=O)c3ccco3)C3=C(C)C(OC(=O)C(O)C(NC(=O)OC(C)(C)C)C4CCC4)CC(O)(C(OC(=O)c4ccccc4)C21)C3(C)C (stereo not shown) [Compound 2199], which IC50 is on record?
Answer: < 10 nM

Question: Which IC50 does the source give for CC(=O)OC12COC1CC(O)C1(C)C(=O)C(OC(=O)c3ccco3)C3=C(C)C(OC(=O)C(O)C(NC(=O)OC(C)(C)C)c4ccc([N+](=O)[O-])cc4)CC(O)(C(OC(=O)c4ccccc4)C21)C3(C)C (stereo not shown) [Compound 2202] here?
Answer: < 1 nM

Question: With CC(=O)OC12COC1CC(O)C1(C)C(=O)C(OC(=O)c3ccco3)C3=C(C)C(OC(=O)C(O)C(NC(=O)OC(C)(C)C)c4ccccc4)CC(O)(C(OC(=O)c4ccccc4)C21)C3(C)C (stereo not shown) [Compound 2212] as the compound, how does the IC50 read?
Answer: < 10 nM

Question: How did the IC50 turn out when CC(=O)OC12COC1CC(O)C1(C)C(=O)C(OC(=O)C(C)C)C3=C(C)C(OC(=O)C(O)C(C=C(C)C)NC(=O)OC(C)(C)C)CC(O)(C(OC(=O)c4ccccc4)C21)C3(C)C (stereo not shown) [Compound 2226] was run?
Answer: < 1 nM

Question: Which IC50 does the source give for CC(=O)OC12COC1CC(O)C1(C)C(=O)C(OC(=O)C(C)C)C3=C(C)C(OC(=O)C(O)C(NC(=O)OC(C)(C)C)c4ccccn4)CC(O)(C(OC(=O)c4ccccc4)C21)C3(C)C (stereo not shown) [Compound 2238] here?
Answer: < 1 nM

Question: With CC(=O)O[C@@]12CO[C@@H]1C[C@H](O)[C@@]1(C)C(=O)[C@H](OC(=O)C(C)C)C3=C(C)[C@@H](OC(=O)[C@H](O)[C@@H](NC(=O)OC(C)(C)C)c4cccnc4)C[C@@](O)([C@@H](OC(=O)c4ccccc4)C12)C3(C)C (stereo partly shown) [Compound 2242] as the compound, how does the IC50 read?
Answer: < 10 nM

Question: With CC(=O)O[C@@]12CO[C@@H]1C[C@H](O)[C@@]1(C)C(=O)[C@H](OC(=O)C(C)C)C3=C(C)[C@@H](OC(=O)[C@H](O)[C@@H](NC(=O)OC(C)(C)C)c4ccncc4)C[C@@](O)([C@@H](OC(=O)c4ccccc4)C12)C3(C)C (stereo partly shown) [Compound 2255] as the compound, how does the IC50 read?
Answer: < 1 nM

Question: With CC(=O)O[C@@]12CO[C@@H]1C[C@H](O)[C@@]1(C)C(=O)[C@H](OC(=O)C(C)C)C3=C(C)[C@@H](OC(=O)[C@H](O)[C@@H](NC(=O)OC(C)(C)C)c4ccco4)C[C@@](O)([C@@H](OC(=O)c4ccccc4)C12)C3(C)C (stereo partly shown) [Compound 2269] as the compound, how does the IC50 read?
Answer: < 1 nM

Question: For CC(=O)O[C@@]12CO[C@@H]1C[C@H](O)[C@@]1(C)C(=O)[C@H](OC(=O)C(C)C)C3=C(C)[C@@H](OC(=O)[C@H](O)[C@@H](NC(=O)OC(C)(C)C)c4ccoc4)C[C@@](O)([C@@H](OC(=O)c4ccccc4)C12)C3(C)C (stereo partly shown) [Compound 2273], which IC50 is on record?
Answer: < 1 nM

Question: CC(=O)O[C@@]12CO[C@@H]1C[C@H](O)[C@@]1(C)C(=O)[C@H](OC(=O)C(C)C)C3=C(C)[C@@H](OC(=O)[C@H](O)[C@@H](NC(=O)OC(C)(C)C)c4cccs4)C[C@@](O)([C@@H](OC(=O)c4ccccc4)C12)C3(C)C (stereo partly shown) [Compound 2287] was tested. Which IC50 did it give?
Answer: < 1 nM

Question: For CC(=O)O[C@@]12CO[C@@H]1C[C@H](O)[C@@]1(C)C(=O)[C@H](OC(=O)C(C)C)C3=C(C)[C@@H](OC(=O)[C@H](O)[C@@H](NC(=O)OC(C)(C)C)c4ccsc4)C[C@@](O)([C@@H](OC(=O)c4ccccc4)C12)C3(C)C (stereo partly shown) [Compound 2291], which IC50 is on record?
Answer: < 1 nM

Question: How did the IC50 turn out when CC(=O)O[C@@]12CO[C@@H]1C[C@H](O)[C@@]1(C)C(=O)[C@H](OC(=O)C(C)C)C3=C(C)[C@@H](OC(=O)[C@H](O)[C@@H](NC(=O)OC(C)(C)C)C(C)C)C[C@@](O)([C@@H](OC(=O)c4ccccc4)C12)C3(C)C (stereo partly shown) [Compound 2306] was run?
Answer: < 10 nM

Question: CC(=O)O[C@@]12CO[C@@H]1C[C@H](O)[C@@]1(C)C(=O)[C@H](OC(=O)C(C)C)C3=C(C)[C@@H](OC(=O)[C@H](O)[C@@H](NC(=O)OC(C)(C)C)C4CCC4)C[C@@](O)([C@@H](OC(=O)c4ccccc4)C12)C3(C)C (stereo partly shown) [Compound 2319] was tested. Which IC50 did it give?
Answer: < 10 nM

Question: With CC(=O)O[C@@]12CO[C@@H]1C[C@H](O)[C@@]1(C)C(=O)[C@H](OC(=O)C(C)C)C3=C(C)[C@@H](OC(=O)[C@H](O)[C@@H](NC(=O)OC(C)(C)C)c4ccc([N+](=O)[O-])cc4)C[C@@](O)([C@@H](OC(=O)c4ccccc4)C12)C3(C)C (stereo partly shown) [Compound 2320] as the compound, how does the IC50 read?
Answer: < 1 nM

Question: C/C=C/C(=O)O[C@H]1C(=O)[C@@]2(C)C([C@H](OC(=O)c3ccccc3)[C@]3(O)C[C@H](OC(=O)[C@H](O)[C@H](C=C(C)C)NC(=O)OC(C)(C)C)C(C)=C1C3(C)C)[C@]1(OC(C)=O)CO[C@@H]1C[C@@H]2O (stereo partly shown) [Compound 2332] was tested. Which IC50 did it give?
Answer: < 1 nM

Question: C/C=C/C(=O)O[C@H]1C(=O)[C@@]2(C)C([C@H](OC(=O)c3ccccc3)[C@]3(O)C[C@H](OC(=O)[C@H](O)[C@@H](NC(=O)OC(C)(C)C)c4ccccn4)C(C)=C1C3(C)C)[C@]1(OC(C)=O)CO[C@@H]1C[C@@H]2O (stereo partly shown) [Compound 2348] was tested. Which IC50 did it give?
Answer: < 1 nM

Question: Which IC50 does the source give for C/C=C/C(=O)O[C@H]1C(=O)[C@@]2(C)C([C@H](OC(=O)c3ccccc3)[C@]3(O)C[C@H](OC(=O)[C@H](O)[C@@H](NC(=O)OC(C)(C)C)c4cccnc4)C(C)=C1C3(C)C)[C@]1(OC(C)=O)CO[C@@H]1C[C@@H]2O (stereo partly shown) [Compound 2353] here?
Answer: < 10 nM

Question: With C/C=C/C(=O)O[C@H]1C(=O)[C@@]2(C)C([C@H](OC(=O)c3ccccc3)[C@]3(O)C[C@H](OC(=O)[C@H](O)[C@@H](NC(=O)OC(C)(C)C)c4ccncc4)C(C)=C1C3(C)C)[C@]1(OC(C)=O)CO[C@@H]1C[C@@H]2O (stereo partly shown) [Compound 2366] as the compound, how does the IC50 read?
Answer: < 1 nM
